One data set concerns the target ANGPTL2. Particulars: ASO.
The target of the next data set is MYH7. Particulars: ASO, CC-2580, 5 µM.
The next data set deals with KRAS. Conditions: ASO.

“And” between values parts separate entries of the source, which are not always exact repeats. Identical values can stand only once. After the bases stand the sugars from the 5' end (letter, count) and the backbone: PS all phosphorothioate, else s phosphorothioate and o phosphodiester by linkage. Methylation of C is not given here. e = 2'-O-(2-methoxyethyl) (MOE); l = locked nucleic acid (LNA); k = constrained ethyl (cEt); d = 2'-deoxy (DNA)

Consider “CAGCTCATTGTTGAGCA (sugars l2 d13 l2, PS)”, for which the target mRNA inhibition with ANGPTL2 (5 µM) stood at 0.32%.
For “TCAGCTTGGCGATGATCT (sugars lddldddddddlddldll, PS)”, the target mRNA inhibition with MYH7 stood at 21%.
Same read-out and setting: to “CAGCTTGGCGATGATCT (sugars lldldldddldddddll, PS)” belongs -1% and -7%; to “CAGCTTGGCGATGATCT (sugars l2 d11 l4, PS)”, 65% and 45%.
On to CCAGCCGCAGCTTATA (sugars l1 d13 l2, PS), for which the target mRNA inhibition in the data set with ANGPTL2 (5 µM) is 21.8%; with ANGPTL2 (25 µM) it was 35.3%.
As to “CAGCTTGGCGATGATCT (sugars lldddddddlddlddll, PS)”, the target mRNA inhibition in the data set with MYH7 is 19% and 5%.
For the sequence “TTAACAGAGCCATCCAGG (sugars l1 d15 l2, PS)”, the results for the target mRNA inhibition with ANGPTL2 (5 µM) and in the data set with ANGPTL2 (25 µM) were 24.9% and 25.4%, respectively.
In the case of “CAGCTTGGCGATGATCT (sugars ldldddddddlddllll, PS)”, in the data set with MYH7, the target mRNA inhibition was 40% and 31%.
Take “AGCTCATTGTTGAGCAG (sugars l1 d13 l3, PS)”: the values for the target mRNA inhibition with ANGPTL2 (5 µM) and with ANGPTL2 (25 µM) were 4.81% and 13.2%, respectively.
In the case of “CAGCTTGGCGATGATCT (sugars llddddddlddldldll, PS)”, the target mRNA inhibition in the data set with MYH7 was 2% and 0%.
Same read-out and setting: next, “TCAGCTTGGCGATGATCT (sugars lddldldlddddddldll, PS)”: 25% and 4%.
In the case of “GCAAAGGTCAGAAACATC (sugars l3 d12 l3, PS)”, the target mRNA inhibition in the data set with ANGPTL2 (5 µM) was found to be 28.8%; in the data set with ANGPTL2 (25 µM), 37.7%.
For “GCTGGAAAGAGGGATAGA (sugars l2 d14 l2, PS)” the same measures were 60.7% and 66.2%.
As for “TCAGCTTGGCGATGATCT (sugars ldlddllddlddddddll, PS)”, in the data set with MYH7, the target mRNA inhibition is 17% and 3%.
Still for that read-out and setting: to “CTTGGCAATGATCTCATCC (sugars ldddddddddldlddddll, PS)” belongs 45% and 22%; to “CAGCTTGGCGATGATCT (sugars lddlddldddddlddll, PS)”, 40% and 20%.
Consider “ACAAGCCAGTTGTATGT (sugars l1 d12 l4, PS)”, for which the target mRNA inhibition with ANGPTL2 (5 µM) is 58.2%; with ANGPTL2 (25 µM) it was 72.3%.
In the case of “AGTTCTGTTTGATCTTC (sugars l2 d11 l4, PS)”, the target mRNA inhibition with ANGPTL2 (5 µM) came to 52.7%; with ANGPTL2 (25 µM), 69.2%.
Regarding “TCAGCTTGGCGATGATCT (sugars ldlldddddddldlddll, PS)”, the target mRNA inhibition with MYH7 was 35% and 24%.
For “CTTGGCAATGATCTCATCC (sugars llldddddddllddlddll, PS)”, the target mRNA inhibition with MYH7 was 71% and 62%.
Still for that read-out and setting: to “CAGCTTGGCGATGATCT (sugars lldddddddlddlldll, PS)” belongs 30% and 25%.
Regarding “GAGTTGAAGGGAGGTGC (sugars l1 d14 l2, PS)”, the results for the target mRNA inhibition with ANGPTL2 (5 µM) and with ANGPTL2 (25 µM) were 17.7% and -10.3%, respectively.
For “AACCATTTTGAGATTCC (sugars l4 d11 l2, PS)” the same measures were 67.7% and 81.3%.
“TTGATGATGCGGTTGTAGGT (sugars l1 d17 l2, PS)”: the target mRNA inhibition with ANGPTL2 (5 µM) is 41.3%; with ANGPTL2 (25 µM) it was 48.7%.
In the same order, the values of “ACACCCAAGACTCAGAT (sugars l4 d11 l2, PS)” are 6.49% and 5.75%.
For “GAACCATTTTGAGATTCCC (sugars l1 d16 l2, PS)” the same measures were 27.6% and 7.84%.
On to “AGGCCAACACTAACTCG (sugars l2 d13 l2, PS)”, for which the target mRNA inhibition was found to be 70.5% with ANGPTL2 (5 µM) and 78.8% in the data set with ANGPTL2 (25 µM).
In the same order, the values of “GAACCATTTTGAGATTCC (sugars l3 d13 l2, PS)” are 56.6% and 52%.
“CAGGTGCTGGTACTTGTG (sugars l1 d15 l2, PS)”: the values for the target mRNA inhibition with ANGPTL2 (5 µM) and with ANGPTL2 (25 µM) were 40.4% and 54.2%, respectively.
For “TGGTTGATGATGCGGTTG (sugars l2 d14 l2, PS)” the same measures were 77.6% and 86.1%.
For the sequence GAGCCTTTACATGCCG (sugars l2 d12 l2, PS), the target mRNA inhibition with ANGPTL2 (5 µM) was found to be 41%; with ANGPTL2 (25 µM) it was 66.8%.
For “TTGATGATGCGGTTGTAGG (sugars l2 d15 l2, PS)” the same measures were 55.3% and 67.3%.
Regarding “AACCATTTTGAGATTCCC (sugars l3 d13 l2, PS)”, the results for the target mRNA inhibition with ANGPTL2 (5 µM) and with ANGPTL2 (25 µM) were 40.2% and 52.7%, respectively.
In the same order, the values of “TGGGCATAGTGGGCAGA (sugars l1 d14 l2, PS)” are 58.9% and 64%.
In the same order, the values of “TCCAGGGTGGTGAACTG (sugars l2 d13 l2, PS)” are 25.1% and 23.2%.
In the same order, the values of “AGGGGCTATGACTATCC (sugars l1 d14 l2, PS)” are 41.3% and 45.9%.
For the sequence CTCCGGTAATGGCCC (sugars l1 d12 l2, PS), the target mRNA inhibition is -5% in the data set with ANGPTL2 (5 µM) and 15.6% in the data set with ANGPTL2 (25 µM).
As for TGATGCGGTTGTAGGT (sugars l2 d12 l2, PS), the target mRNA inhibition with ANGPTL2 (5 µM) is 73.2%.
With “TGAAGGAAAGTAGGAGGGA (sugars l1 d15 l3, PS)”, the target mRNA inhibition in the data set with ANGPTL2 (5 µM) worked out at 10.6%; in the data set with ANGPTL2 (25 µM) it was 16.5%.
“TAGTGGGCACAGTTTCC (sugars l1 d14 l2, PS)”: the target mRNA inhibition with ANGPTL2 (5 µM) was determined as 21.2%; with ANGPTL2 (25 µM), 36.4%.
For the sequence TGTAGGTGCACTTGTC (sugars l2 d12 l2, PS), the values for the target mRNA inhibition with ANGPTL2 (5 µM) and in the data set with ANGPTL2 (25 µM) were 28.5% and 49.4%, respectively.
In the same order, the values of “CGGTTGTAGGTGGGTGG (sugars l1 d14 l2, PS)” are 21.1% and -3.3%.
In the same order, the values of “TTGGACAACTAGGCAGCA (sugars l3 d13 l2, PS)” are 38.8% and 60.3%.
Turning to CCAGTGATACTTTCAC (sugars k3 d10 k3, PS), the target mRNA inhibition with KRAS (A431, 2 µM) stood at 15%.
Still for that read-out and setting: next, GATATCCACAGCAGCA (sugars k3 d10 k3, PS): 10%.
Turning to “CAGTGTGACTCAGTTA (sugars kkkddddddddkekek, PS)”, the target mRNA inhibition was 28% with KRAS (A431, 0.185 µM); 24% with KRAS (A431, 0.556 µM); 46% with KRAS (A431, 1.667 µM); 63% with KRAS (A431, 2 µM); 71% in the data set with KRAS (A431, 5 µM).
As for “ATGGTGTAACATAGGT (sugars kkddddddddkekekk, PS)”, the target mRNA inhibition with KRAS (A431, 2 µM) stood at 40%.
The same measure, in the same setting: to “TTAGTGATTAGGTCAA (sugars kkdddddddddkekek, PS)” belongs 48%; to “TCCAGTGATACTTTCA (sugars kkkddddddddkekek, PS)”, 48%.
Still for that read-out and setting: next, “CAGTGTTAAGAGAACT (sugars kddddddddddkekek, PS)”: 23%; TAAGGTAAAAGCTAAC (sugars k3 d10 k3, PS): 20%.
Same read-out and setting: next, ATTGTGCAATGGTGAC (sugars k3 d10 k3, PS): 57%; “CCATTTATGTGACTAG (sugars kkdddddddddkdkdk, PS)”: 43%.
For the sequence “ACAGGGAAAGAATTTGGGTC (sugars l1 d16 l3, PS)”, the target mRNA inhibition with ANGPTL2 (5 µM) came out at 44.4%; with ANGPTL2 (25 µM), 37.5%.
In the same order, the values of “TGCTGGGGCACAATGAA (sugars l2 d12 l3, PS)” are 28.2% and 2.72%.
For the sequence CTTCATTGTTTAAAAA (sugars k3 d10 k3, PS), in the data set with KRAS (A431, 2 µM), the target mRNA inhibition came to 11%.
In the case of “AGTTGATAGTTTATCTCC (sugars l2 d14 l2, PS)”, the target mRNA inhibition with ANGPTL2 (5 µM) came out at 51.7%; in the data set with ANGPTL2 (25 µM) it was 64.9%.
Take “GAGTCTTTATAGTAAT (sugars kkddddddddkekekk, PS)”: the target mRNA inhibition in the data set with KRAS (A431, 2 µM) was found to be 0%.
The same measure, in the same setting: to “TGCTGTGAAACTCTCT (sugars k3 d9 k3 e1, PS)” belongs 23%.
As to AGTGTGACTCAGTTAA (sugars k3 d10 k3, PS), the target mRNA inhibition with KRAS (A431, 2 µM) was 53%.
Regarding “CTATCCTCTCCCAAACATG (sugars l1 d16 l2, PS)”, the target mRNA inhibition with ANGPTL2 (5 µM) worked out at 16%; with ANGPTL2 (25 µM) it was 24.1%.
For “TTGAGATTCCCCCAAAG (sugars l2 d11 l4, PS)” the same measures were 28.3% and 41.2%.
“GTCCAGTGATACTTTC (sugars kkddddddddddkeke, PS)”: the target mRNA inhibition with KRAS (A431, 2 µM) amounted to 39%.
Consider AAAAAAAAATTAATGT (sugars k3 d10 k3, PS), for which, in the data set with KRAS (A431, 2 µM), the target mRNA inhibition was determined as 16%.
On the same count and under the same terms, next, “AGATTGTGCTGAGCTT (sugars kkkdddddddddkeke, PS)”: 43%.
As for “CCTTTTCACTCTCAATAT (sugars l3 d13 l2, PS)”, the target mRNA inhibition amounted to 36.8% with ANGPTL2 (5 µM) and 43.5% with ANGPTL2 (25 µM).
Consider “TGGTGTAACATAGGTT (sugars kkddddddddddkeke, PS)”, for which the target mRNA inhibition in the data set with KRAS (A431, 0.185 µM) was 28%; with KRAS (A431, 0.556 µM) it was 62%; with KRAS (A431, 1.667 µM), 74%; with KRAS (A431, 2 µM), 67%; in the data set with KRAS (A431, 5 µM), 87%; with KRAS (NCI-H460, 0.037 µM), 64.3%.
Take “CCAGGCAGTTTCTTATG (sugars l1 d13 l3, PS)”: the target mRNA inhibition in the data set with ANGPTL2 (5 µM) was determined as 16.4%; in the data set with ANGPTL2 (25 µM) it was 25.8%.
As for GTACTAGTATGCCTTA (sugars k3 d10 k3, PS), in the data set with KRAS (A431, 2 µM), the target mRNA inhibition was determined as 50%.
As to “GTGTTTATGCAATGTT (sugars k3 d9 k3 e1, PS)”, the target mRNA inhibition with KRAS (A431, 0.185 µM) is 19%; with KRAS (A431, 0.556 µM), 63%; with KRAS (A431, 1.667 µM), 79%; with KRAS (A431, 2 µM) it was 59%; with KRAS (A431, 5 µM) it was 88%.
Regarding CGAGAATGGATATTCA (sugars k3 d10 k3, PS), the target mRNA inhibition with KRAS (A431, 2 µM) is 14%.
Turning to GGGCATTTCTGATGTG (sugars k3 d10 k3, PS), in the data set with KRAS (A431, 2 µM), the target mRNA inhibition is 7%.
